The record followed here is ChEMBL document CHEMBL3813678, “Synthesis and anticancer activity of novel 4-morpholino-7,8-dihydro-5H-thiopyrano[4,3-d]pyrimidine derivatives bearing chromone moiety” (Bioorg Med Chem, 2016).

The test system of experiment [1] is MCF7. Description: Cytotoxicity against human MCF7 cells after 72 hrs by MTT assay. It counts as functional, cell-based. On the technique in general: Formazan colour is commonly taken as a measure of viable cells.
Experiment [2] has as its system A549. The experiment in a line: Cytotoxicity against human A549 cells after 72 hrs by MTT assay. It counts as functional, cell-based.
The nature of experiment [3]: Cytotoxicity against human PC3 cells after 72 hrs by MTT assay. It counts as functional, cell-based, PC-3.
Experiment [4] has as its system HeLa. Description: Cytotoxicity against human HeLa cells after 72 hrs by MTT assay. It counts as functional, cell-based.
The test system of experiment [5] is HepG2. Description: Cytotoxicity against human HepG2 cells after 72 hrs by MTT assay. The format is functional, cell-based.
Experiment [6] deals with T1, Serine/threonine-protein kinase mTOR (Homo sapiens, UniProt P42345). The experiment in a line: Inhibition of mTOR (unknown origin) using ULight4E-BP1 peptide as substrate incubated for 1 hr by TR-FRET assay.
Experiment [7] concerns the target T1, Serine/threonine-protein kinase mTOR. The experiment in a line: Inhibition of mTOR (unknown origin) at 10 uM using ULight4E-BP1 peptide as substrate incubated for 1 hr by TR-FRET assay.
Experiment [8] addresses T2, Phosphatidylinositol 4,5-bisphosphate 3-kinase catalytic subunit alpha isoform (Homo sapiens, UniProt P42336). Description: Inhibition of PI3Kalpha (unknown origin) at 10 uM using PI substrate incubated for 60 mins by kinase-glo luminescence assay.
Experiment [9] addresses T2, Phosphatidylinositol 4,5-bisphosphate 3-kinase catalytic subunit alpha isoform. The experiment in a line: Inhibition of PI3Kalpha (unknown origin) using PI substrate incubated for 60 mins by kinase-glo luminescence assay. For orientation: Kinase-Glo reads ATP consumption through a luciferase reaction.
Where [10] appears, read: Homo sapiens, A549, 72 h, read-out: IC50.
The mark [11] stands for this setting: Homo sapiens, PC-3, 72 h, read-out: IC50.
Where [12] appears, read: Homo sapiens, MCF7, 72 h, read-out: IC50.
Where [13] appears, read: Homo sapiens, HeLa, 72 h, read-out: IC50.
Where [14] appears, read: Homo sapiens, HepG2, 72 h, read-out: IC50.

T2 sequence (P42336 whole entry, canonical isoform): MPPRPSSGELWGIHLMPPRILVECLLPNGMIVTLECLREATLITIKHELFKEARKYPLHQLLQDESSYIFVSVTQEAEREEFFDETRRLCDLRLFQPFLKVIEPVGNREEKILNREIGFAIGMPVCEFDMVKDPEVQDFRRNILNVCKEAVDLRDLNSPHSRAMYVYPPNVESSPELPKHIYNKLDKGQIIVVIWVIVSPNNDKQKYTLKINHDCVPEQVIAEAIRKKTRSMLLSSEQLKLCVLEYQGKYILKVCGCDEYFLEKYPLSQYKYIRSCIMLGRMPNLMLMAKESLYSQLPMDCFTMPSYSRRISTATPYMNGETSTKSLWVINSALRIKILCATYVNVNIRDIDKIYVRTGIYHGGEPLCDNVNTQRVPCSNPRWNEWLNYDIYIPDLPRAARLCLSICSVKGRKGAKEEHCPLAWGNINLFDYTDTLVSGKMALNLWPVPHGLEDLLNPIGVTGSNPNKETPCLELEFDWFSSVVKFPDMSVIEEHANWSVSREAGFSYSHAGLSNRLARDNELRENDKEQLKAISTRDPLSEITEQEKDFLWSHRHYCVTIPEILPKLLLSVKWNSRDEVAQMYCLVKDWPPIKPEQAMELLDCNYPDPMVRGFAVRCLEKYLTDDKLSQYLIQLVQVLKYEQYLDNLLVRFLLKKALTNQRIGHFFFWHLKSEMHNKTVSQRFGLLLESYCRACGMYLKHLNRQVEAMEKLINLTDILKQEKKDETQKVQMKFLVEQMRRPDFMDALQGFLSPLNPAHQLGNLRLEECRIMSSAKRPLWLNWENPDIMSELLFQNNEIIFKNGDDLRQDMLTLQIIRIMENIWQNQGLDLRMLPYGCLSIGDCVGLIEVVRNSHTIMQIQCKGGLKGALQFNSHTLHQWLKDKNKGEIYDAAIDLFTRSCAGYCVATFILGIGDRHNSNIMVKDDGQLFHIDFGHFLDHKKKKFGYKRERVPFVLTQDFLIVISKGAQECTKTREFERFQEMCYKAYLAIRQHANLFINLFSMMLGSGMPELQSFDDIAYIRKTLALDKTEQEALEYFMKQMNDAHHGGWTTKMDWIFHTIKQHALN

For orientation: IC50 means the concentration that inhibits the measured activity by half. Consider `O=C(O)c1ccc2occ(/C=N/Nc3nc4c(c(N5CCOCC5)n3)CS(=O)(=O)CC4)c(=O)c2c1`, for which the IC50 entry in experiment [1] (mcf7), in [2] (a549) and in experiment [3] (pc-3) was “Not Active” throughout.

In the case of `O=c1c(/C=N/Nc2nc3c(c(N4CCOCC4)n2)CSCC3)coc2ccc(O)cc12`, the IC50 entry is “Not Active” in experiment [1] (mcf7); “Not Active” in experiment [4] (hela); greater than 100 µM in experiment [2] (setting [10]); greater than 100 µM in experiment [3] (setting [11]); “Not Active” in [5] (hepg2).

With `CCc1ccc2occ(/C=N/Nc3nc4c(c(N5CCOCC5)n3)CSCC4)c(=O)c2c1`, the half-inhibitory concentration (IC50) is 11.2 µM in experiment [1] (setting [12]); “Not Active” in experiment [6]; 10.1 µM in experiment [4] (setting [13]); 21.1 µM in [2] (setting [10]); 23.8 µM in experiment [3] (setting [11]); 13.9 µM in experiment [5] (setting [14]).

As to `O=c1c(/C=N/Nc2nc3c(c(N4CCOCC4)n2)CSCC3)coc2ccc(Cl)cc12`, the IC50 result in [1] (mcf7) was “Not Active”; in [4] (setting [13]), 13.4 µM; in experiment [2] (setting [10]), greater than 100 µM; in [3] (setting [11]), 32.2 µM; in [5] (hepg2), “Not Active”.

With `CC(C)c1ccc2occ(/C=N/Nc3nc4c(c(N5CCOCC5)n3)CS(=O)(=O)CC4)c(=O)c2c1`, the IC50 in experiment [1] (setting [12]) worked out at 27.3 µM; in experiment [4] (setting [13]) it was 26.5 µM; in experiment [2] (setting [10]), 25.7 µM; in experiment [3] (setting [11]), 34.9 µM; in [5] (setting [14]) it was 27.9 µM.

Turning to `CCc1ccc2occ(/C=N/Nc3nc4c(c(N5CCOCC5)n3)CS(=O)(=O)CC4)c(=O)c2c1`, the IC50 is 28.9 µM in [1] (setting [12]); 20.2 µM in experiment [4] (setting [13]); 26.4 µM in experiment [2] (setting [10]); 30.2 µM in [3] (setting [11]); 25.9 µM in experiment [5] (setting [14]).

For `O=c1c(/C=N/Nc2nc3c(c(N4CCOCC4)n2)CS(=O)(=O)CC3)coc2ccc(Br)cc12`, the IC50 was 60.3 µM in [1] (setting [12]); “Not Active” in experiment [4] (hela); 50.5 µM in [2] (setting [10]); 65.1 µM in experiment [3] (setting [11]); “Not Active” in experiment [5] (hepg2).

On to `O=c1c(/C=N/Nc2nc3c(c(N4CCOCC4)n2)CS(=O)(=O)CC3)coc2ccc(F)cc12`, for which the IC50 entry in experiment [1] (mcf7), in [2] (a549) and in [3] (pc-3) was “Not Active” throughout.

Consider `O=c1c(/C=N/Nc2nc3c(c(N4CCOCC4)n2)CS(=O)(=O)CC3)coc2ccc([N+](=O)[O-])cc12`, for which the IC50 result in experiment [1] (mcf7), in experiment [2] (a549) and in experiment [3] (pc-3) was “Not Active” each time.

Usually inhibition stands for the drop in the measured response relative to a control, in per cent. A lower inhibition goes with a weak effect. Turning to `O=c1c(/C=N/Nc2nc3c(c(N4CCOCC4)n2)CSCC3)coc2ccc([N+](=O)[O-])cc12`, the IC50 in experiment [1] (setting [12]) was determined as 21.4 µM; in experiment [4] (setting [13]), 11.5 µM; in experiment [2] (setting [10]) it was 19.8 µM; in experiment [3] (setting [11]), 34.9 µM; in experiment [5] (setting [14]), 12.7 µM. Moreover, the inhibition in experiment [7] was determined as 66.4%; in [8], 16.7%.

In the case of `O=c1c(/C=N/Nc2nc3c(c(N4CCOCC4)n2)CSCC3)coc2ccc(Br)cc12`, the IC50 in experiment [1] (setting [12]), in experiment [4] (setting [13]), in experiment [2] (setting [10]), in experiment [3] (setting [11]) and in [5] (setting [14]) was greater than 100 µM each time.

Regarding `Cc1ccc2occ(/C=N/Nc3nc4c(c(N5CCOCC5)n3)CS(=O)(=O)CC4)c(=O)c2c1`, the IC50 in experiment [1] (setting [12]) was 22.1 µM; in [4] (setting [13]), 19.2 µM; in experiment [2] (setting [10]) it was 20.8 µM; in [3] (setting [11]), 38 µM; in experiment [5] (setting [14]), 23.4 µM.

With `CC(C)c1ccc2occ(/C=N/Nc3nc4c(c(N5CCOCC5)n3)CSCC4)c(=O)c2c1`, the IC50 in experiment [1] (setting [12]) was 13.1 µM; in experiment [6], “Not Active”; in experiment [4] (setting [13]), 15.5 µM; in experiment [2] (setting [10]) it was 9.5 µM; in experiment [3] (setting [11]) it was 17.3 µM; in experiment [5] (setting [14]) it was 9.95 µM.

Regarding `O=c1c(/C=N/Nc2nc3c(c(N4CCOCC4)n2)CSCC3)coc2ccc(F)cc12`, the IC50 in experiment [1] (setting [12]) was 11.3 µM; in experiment [6], “Not Active”; in experiment [4] (setting [13]), 0.38 µM; in experiment [2] (setting [10]) it was 6.9 µM; in experiment [3] (setting [11]), 83.9 µM; in experiment [5] (setting [14]), 0.28 µM.

Consider `O=C(O)c1ccc2occ(/C=N/Nc3nc4c(c(N5CCOCC5)n3)CSCC4)c(=O)c2c1`, for which the concentration for half-maximal inhibition (IC50) in [1] (setting [12]) came out at 11.8 µM; in experiment [6] (read-out: IC50) it was 1.1 µM; in experiment [4] (setting [13]), 10.3 µM; in [9] (read-out: IC50) it was 0.92 µM; in experiment [2] (setting [10]), 10.5 µM; in experiment [3] (setting [11]) it was 14.3 µM. In experiment [5] (setting [14]), the half-inhibitory concentration (IC50) is 8.77 µM.

Regarding `CC(C)(C)c1ccc2occ(/C=N/Nc3nc4c(c(N5CCOCC5)n3)CS(=O)(=O)CC4)c(=O)c2c1`, the IC50 in [1] (setting [12]) amounted to 17.8 µM; in experiment [4] (setting [13]), 15.3 µM; in experiment [2] (setting [10]), 18.4 µM; in [3] (setting [11]), 17.9 µM; in experiment [5] (setting [14]), 14.8 µM. The inhibition in experiment [7] was 44.7%; in experiment [8] it was 13.8%.

In the case of `CS(=O)(=O)N1CCN(Cc2cc3nc(-c4cccc5[nH]ncc45)nc(N4CCOCC4)c3s2)CC1` [PICTILISIB], the values for the IC50 in experiment [1] (setting [12]), in experiment [2] (setting [10]) and in experiment [3] (setting [11]) were 0.07 µM, 6.99 µM and 0.2 µM, respectively.

In the case of `Cc1ccc2occ(/C=N/Nc3nc4c(c(N5CCOCC5)n3)CSCC4)c(=O)c2c1`, the IC50 in experiment [1] (setting [12]) is 36.6 µM; in [4] (setting [13]), 15.9 µM; in experiment [2] (setting [10]), 42.5 µM; in experiment [3] (setting [11]) it was greater than 100 µM; in [5] (hepg2), “Not Active”.

`CC(C)(C)c1ccc2occ(/C=N/Nc3nc4c(c(N5CCOCC5)n3)CSCC4)c(=O)c2c1`: the IC50 came to 3.85 µM in [1] (setting [12]); 0.17 µM in [4] (setting [13]); 11.5 µM in experiment [2] (setting [10]); 15.3 µM in [3] (setting [11]); 1.84 µM in experiment [5] (setting [14]). In addition, the inhibition in [7] is 36.4%; in [8], 24%.

`COc1cc(/C=N/Nc2nc3c(c(N4CCOCC4)n2)CSCC3)cc(OC)c1O`: the IC50 in experiment [1] (setting [12]) is 5.84 µM; in experiment [9] it was “Not Active”; in [2] (setting [10]) it was 7.43 µM.

With `O=c1c(/C=N/Nc2nc3c(c(N4CCOCC4)n2)CS(=O)(=O)CC3)coc2ccc(O)cc12`, the IC50 result in experiment [1] (mcf7), in [2] (a549) and in [3] (pc-3) was “Not Active” in each case.

On to `O=c1c(/C=N/Nc2nc3c(c(N4CCOCC4)n2)CS(=O)(=O)CC3)coc2ccc(Cl)cc12`, for which the IC50 in [1] (setting [12]) came out at 23.5 µM; in experiment [4] (setting [13]), 30.4 µM; in [2] (setting [10]) it was 17.9 µM; in [3] (setting [11]) it was 46.9 µM; in experiment [5] (setting [14]), 38.1 µM.
